Experimental data from paper PMC10945332, “Precision peptide theranostics: developing N- to C-terminus optimized theranostics targeting cholecystokinin-2 receptor” (Theranostics, 2024).
Like-named read-outs stand apart in the source and are kept apart here. Where a SMILES comes first, the peptide text is derived from it. [ ]: non-standard residue; d: D form. The star is where a group is joined. DOTA = O=C(O)CN1CCN(CC(=O)O)CCN(CC(=O)*)CCN(CC(=O)O)CC1; NMe1Nal = CN[C@@H](Cc1cccc2ccccc12)C(=O)O; NMeNle = CCCC[C@H](NC)C(=O)O; Sar = CNCC(=O)O

Legend:
[1] = assay type: physicochemical
Experimental: Lipophilicity, expressed as the octanol-water partition coefficient, constitutes an important property in drug action, influencing both pharmacokinetic and pharmacodynamics processes. The distribution coefficient (LogD7.4) of [^68Ga]Ga-DOTA-peptides was determined by measuring radioactivity distribution in the aqueous phase (phosphate buffer pH7.4) and the organic phase (n-octanol). […]
To determine the distribution coefficient (logD 7.4), 68Ga radiolabeled peptides [68Ga]Ga-DOTA-GA4, [68Ga]Ga-DOTA-GA7, and [68Ga]Ga-DOTA-GA11–GA13 were diluted to approximately 20 pmol/mL in PBS (pH 7.4) and an equal volume of n-octanol was added. The mixture was vortexed vigorously for 10 cycles of 1 min at room temperature before being centrifuged for 6 min to separate the two phases. Equal volumes from each phase were aliquoted into individual counting tubes and analysed for 1 min using the Perkin Elmer 2480 Wizard2™ gamma counter (PerkinElmer, Massachusetts, USA). The distribution coefficient was calculated using the following equation LogD = […]. […]

[2] = assay type: in vitro ADME, mouse
Experimental: Metabolic stability is an important determinant of the efficacy of peptide radiopharmaceuticals and their progression as promising theranostic candidates. In vitro, metabolic degradation through hepatic and renal enzymes can be assessed by utilizing liver and kidney tissue homogenates. Radiolabeled peptides [^68Ga]Ga-DOTA-GA4, and D-Ala substituted variants [^68Ga]Ga-DOTA-GA7, [^68Ga]Ga-DOTA-GA11-GA13 were incubated in liver and kidney mouse homogenates, in human serum at 37°C, and in HEPES buffer (pH 7.4) as a negative control. Following a time course experiment, the metabolites were analyzed using HPLC to quantify the % breakdown of the respective parent peptide. […]
To assess the stability of 68Ga radiolabeled peptides against enzymatic degradation, duplicate samples (750-900 pmol/mL, 2-5MBq) were incubated at 37 ℃ with pooled human serum, 15% […]
mouse kidney homogenate, 30% mouse liver homogenate or 20 mM HEPES, pH 7.3 (control).
Human blood was collected, and serum prepared using SSTII advance vacutainer tubes according to the manufacturer’s instructions (Becton Dickinson, New Jersey, USA). Mouse kidney and liver homogenates were prepared by washing the tissues in ice-cold HEPES buffer, pH 7.3 and placing them in pre-chilled tubes containing HEPES buffer and 2.38 mm metal beads (Mo-Bio Laboratories, Hilden, Germany). Tissues were homogenised using the PowerLyzer24 homogeniser (Qiagen, Hilden, Germany) according to the manufacturer’s instructions. 68Ga radiolabeled peptides were then incubated with the various lysates at 37 ℃ and samples were collected at 15, 30, 60 and 90 min. Reactions were terminated by addition of an equal volume of acetonitrile and centrifugation for 2 min at 15,000 rpm. Supernatants were diluted in water before being analysed by HPLC using a Kinetex C18 XB column (5µm

[3] = mouse, in vivo
Experimental: (§1) In order to assess these promising ligands as potential theranostics, the library of [^68Ga]Ga-DOTA-peptides was evaluated using static small animal PET imaging and quantifying biodistribution studies. This study was performed to investigate tumor uptake as well as the accumulation of radioligands in other organs. Mice bearing A431-CCK2R tumors were imaged at 1- and 2 hours post tracer injection, and tracer biodistribution was evaluated at the 1 hour and 2.5 hour time points to quantify tumor uptake and retention. […]
(§2) Small Animal PET Imaging and Biodistribution Studies
(§3) Female NSG mice (age 11-14 weeks) were sourced from Animal Resources Centre, (Canning Vale, Western Australia) and were inoculated subcutaneously on the right flank with 1-3 x 106 […]
(§4) A431-CCK2R cells in PBS:Matrigel (1:1). […]
(§5) Mice were assigned to imaging and/or biodistribution groups (tumour volumes: 119-327 mm3).
(§6) The respective 68Ga labelled tracer (1.63–3.81 MBq, 170µL, 13.7–14.2 pmoles) containing vehicle solution (75µL, DMSO:Tween 80: water, 2:2:6 v/v/v) was then administered to mice intravenously via tail vein injection. Three mice were euthanized for biodistribution 1 hour post injection (n=3) and selected tissues were excised, weighed, and counted using a Capintec (Captus 4000e) gamma counter. Three mice were anaesthetised using 1.5% isoflurane and imaged at 1 hour (n=3) and 2 hours (n=3) with a G8 Small Animal PET/CT scanner (Perkin […]
(§7) Elmer/Sofie Biosciences). A 10 min static PET scan was acquired, followed immediately by a CT scan (Supplementary Data, pS51–S55). PET images were acquired using the G8 acquisition engine software and reconstructed using a 3D maximal likelihood and expectation maximization (ML-EM) algorithm. PET images were analysed using VivoQuant software, version 3.0 (inviCRO Imaging Services and Software) to quantify maximum standardised uptake value in regions of interest (SUVmax). Background regions for imaging experiments were calculated by quantitating mean standardised uptake value (SUVmean) of the abdomen and gut region. The region of interest was selected due to low uptake in abdomen/gut during imaging. After imaging the 2-hour time point, mice organs were harvested for biodistribution […]
(§8) For blocking CCK2R binding a solution of N-[(3R)-2,3-Dihydro-1-[2-(2-methylphenyl)-2-oxoethyl]-2-oxo-5-phenyl-1H-1,4-benzodiazepin-3-yl]-N′-(3-methylphenyl)-urea (YM022; Sigma Aldrich) was used. YM022 (75µL of a 1 mg/ml solution constituting DMSO:Tween 80: water, 2:2:6 v/v/v) was added to the respective 68Ga labelled tracer (1.41–3.61 MBq, 100 µL, 13.7–14.2 pmoles) and this mixture ([…]) was administered in three mice intravenously via tail vein injection and organs harvested at 1 hour post injection for biodistribution analysis, as above.
(§9) All animal experiments were performed with the approval of the Peter MacCallum Cancer Centre Animal Experimentation Ethics Committee and in accordance with the Australian code for the care and use of animals for scientific purposes, 8th Edition, 2013 (AEEC Approval

in vivo = conditions: female, NSG, mouse, iv, total radioactivity; for SUV at 2 h: SUVmax
Experimental: as §1, §2, §3, §4, §5, §6, §7, §8, §9

AR42J xenografts = conditions: mouse, in vivo, 1 h; cited from earlier work
A431-CCK2R tumors = experiment: in vivo; conditions: female, NSG, mouse, iv, 1 h
Experimental: as §1, §2, §3, §4, §5, §6, §7, §8, §9

[4] = 3 mg/kg, Uptake in A431-CCK2R Tumors, 1 hr Blocked
[5] = Uptake in A431-CCK2R Tumors, 1 hr

| SMILES | logD [1] | metabolites in kidney homogenates [2] | metabolites in liver homogenates [2] | tissue uptake at 1 h [3, 4] [%ID/g] | tissue uptake at 1 h [3, 5] [%ID/g] | tissue uptake at 2.5 h ([3]; Uptake in A431-CCK2R Tumors) [%ID/g] | tissue uptake at 1 h ([3]; Uptake in Organs: Blood) [%ID/g] | tissue uptake at 1 h ([3]; Uptake in Organs: Heart) [%ID/g] | tissue uptake at 1 h ([3]; Uptake in Organs: Kidneys) [%ID/g] | tissue uptake at 1 h ([3]; Uptake in Organs: Liver) [%ID/g] | tissue uptake at 1 h ([3]; Uptake in Organs: Lungs) [%ID/g] | tissue uptake at 1 h ([3]; Uptake in Organs: Muscle) [%ID/g] | tissue uptake at 1 h ([3]; Uptake in Organs: Spleen) [%ID/g] | tissue uptake at 1 h ([3]; Uptake in Organs: Stomach) [%ID/g] | tissue to tissue ratio at 1 h (in vivo) | SUV at 2 h (in vivo) [SUV] | Tumor uptake (AR42J xenografts) [% ID/g] | SUVmax (A431-CCK2R tumors) |
| --- | --- | --- | --- | --- | --- | --- | --- | --- | --- | --- | --- | --- | --- | --- | --- | --- | --- | --- |
| CCCC[C@@H](C(=O)N[C@@H](CC(=O)O)C(=O)N(C)[C@@H](Cc1cccc2ccccc12)C(N)=O)N(C)C(=O)[C@H](Cc1c[nH]c2ccccc12)NC(=O)CN(C)C(=O)[C@H](Cc1ccc(O)cc1)NC(=O)[C@H](C)NC(=O)[C@@H](CCC(=O)O)NC(=O)[C@@H](CCC(=O)O)NC(=O)[C@@H](CCC(=O)O)NC(=O)[C@@H](CCC(=O)O)NC(=O)[C@@H](CCC(=O)O)NC(=O)[C@@H](CCC(=O)O)NC(=O)CN1CCN(CC(=O)O)CCN(CC(=O)O)CCN(CC(=O)O)CC1 [[^68Ga]Ga-DOTA-GA4, metal not drawn] ({DOTA}-[dE][dE][dE][dE][dE][dE]AY[Sar]W[NMeNle]D[NMe1Nal]-NH2) | -2.97 ± 0.13 | no observable metabolites detected | no observable metabolites detected | 2.05 ± 0.14 | 8.77 ± 1.21 | 7.54 ± 0.5 | 0.92 ± 0.05 | 0.45 ± 0.03 | 20.3 ± 0.89 | 0.51 ± 0.01 | 0.92 ± 0.04 | 0.14 ± 0.01 | 0.62 ± 0.14 | 2.37 ± 0.12 | 11.4 ± 0.9 | 0.38 | 31.1 ± 5.3 |  |
| CCCC[C@@H](C(=O)N[C@@H](CC(=O)O)C(=O)N(C)[C@@H](Cc1cccc2ccccc12)C(N)=O)N(C)C(=O)[C@H](Cc1c[nH]c2ccccc12)NC(=O)CN(C)C(=O)[C@H](Cc1ccc(O)cc1)NC(=O)[C@H](C)NC(=O)[C@@H](CCC(=O)O)NC(=O)[C@@H](CCC(=O)O)NC(=O)[C@@H](CCC(=O)O)NC(=O)[C@@H](C)NC(=O)[C@@H](CCC(=O)O)NC(=O)[C@@H](CCC(=O)O)NC(=O)CN1CCN(CC(=O)O)CCN(CC(=O)O)CCN(CC(=O)O)CC1 [[^68Ga]Ga-DOTA-GA13, metal not drawn] ({DOTA}-[dE][dE][dA][dE][dE][dE]AY[Sar]W[NMeNle]D[NMe1Nal]-NH2) | -2.59 ± 0.02 | no observable metabolites detected | no observable metabolites detected | 2.53 ± 0.17 | 9.68 ± 1.02 | 11.4 ± 0.17 | 0.83 ± 0.07 | 0.4 ± 0.03 | 12.3 ± 0.63 | 0.44 ± 0.03 | 0.85 ± 0.11 | 0.16 ± 0.03 | 0.43 ± 0.13 | 1.81 ± 0.12 | 19.3 ± 1.49 | 0.32 |  | 1.86 |
